# Assays:
# Type in all cases: in vivo
# [1] = test system: large crabgrass (Digitaria sanguinalis, DIGSA); assay: Pre-emerge test, greenhouse herbicide activity screening; details: rating scale 0-100, 14 days after application
# Procedure, shortened: (§1)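 Compounds in acetone were track-sprayed at 15–1000 g ai/ha: pre-emergence onto soil sown the previous day, then top-watered to incorporate and later bottom-watered; post-emergence onto 2–3 leaf plants with 0.25% v/v surfactant, bottom-watered only. Ratings on a 0–100 phytotoxicity scale were taken at day 14.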
# [2] = test system: barnyardgrass (Echinochloa crus-galli, ECHCG); assay: as above; details: rating scale 0-100, 14 days after application
# Procedure, shortened: as §1
# [3] = test system: velvetleaf (Abutilon theophrasti, ABUTH); assay: as above; details: rating scale 0-100, 14 days after application
# Procedure, shortened: as §1
# [4] = test system: ivyleaf morningglory (Ipomoea hederacea, IPOHE); assay: as above; details: rating scale 0-100, 14 days after application
# Procedure, shortened: as §1
# [5] = test system: green foxtail (Setaria viridis, SETVI); assay: as above; details: rating scale 0-100, 14 days after application
# Procedure, shortened: as §1
# [6] = test system: lambsquarters (Chenopodium album, CHEAL); assay: as above; details: rating scale 0-100, 14 days after application
# Procedure, shortened: as §1
# [7] = test system: sicklepod (Cassia obtusifolia, CASOB); assay: as above; details: rating scale 0-100, 14 days after application
# Procedure, shortened: as §1
# [8] = test system: johnsongrass (Sorghum halepense, SORHA); assay: as above; details: rating scale 0-100, 14 days after application
# Procedure, shortened: as §1
# [9] = test system: redroot pigweed (Amaranthus retroflexus, AMARE); assay: as above; details: rating scale 0-100, 14 days after application
# Procedure, shortened: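 Sandy loam pots; pre-emerge: sown 1 d pre-spray, surface-watered after, then bottom-watered. Post-emerge: sown 8–21 d before, 2–3 leaf stage, + 0.25% v/v NIS, bottom-watered. Acetone, 187 l/ha track spray, 15–1000 g ai/ha. 0–100 injury score, day 14.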
# [10] = test system: upland rice (Oryza sp., var. Tebonnet, RICE); assay: Pre-emerge test, crop safety; details: rating scale 0-100, 14 days after application
# Procedure, shortened: (§2)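 Compounds in acetone were track-sprayed at 187 l/ha, 15–1000 g ai/ha, onto sandy loam pots. Pre-emerge seeds were sown one day before spraying, with surface watering afterwards. Post-emerge plants were at the 2–3 leaf stage and sprayed with 0.25% v/v non-ionic surfactant. Injury was rated 0–100 at 14 days.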
# [11] = test system: field corn (Zea mays L., var. Dekalb 535, CORN); assay: Pre-emerge test, crop safety; details: rating scale 0-100, 14 days after application
# Procedure, shortened: as §2
# [12] = test system: large crabgrass (Digitaria sanguinalis, DIGSA); assay: Post-emerge test, greenhouse herbicide activity screening; details: rating scale 0-100 (0 no damage, 100 complete death), 14 days after application
# Procedure, shortened: as §2
# [13] = test system: barnyardgrass (Echinochloa crus-galli, ECHCG); assay: as above; details: rating scale 0-100 (0 no damage, 100 complete death), 14 days after application
# Procedure, shortened: as §2
# [14] = test system: velvetleaf (Abutilon theophrasti, ABUTH); assay: as above; details: rating scale 0-100 (0 no damage, 100 complete death), 14 days after application
# Procedure, shortened: as §2
# [15] = test system: ivyleaf morningglory (Ipomoea hederacea, IPOHE); assay: as above; details: rating scale 0-100 (0 no damage, 100 complete death), 14 days after application
# Procedure, shortened: as §2
# [16] = test system: green foxtail (Setaria viridis, SETVI); assay: as above; details: rating scale 0-100 (0 no damage, 100 complete death), 14 days after application
# Procedure, shortened: as §2
# [17] = test system: common ragweed (Ambrosia artemisizfolia L., AMBEL); assay: as above; details: rating scale 0-100 (0 no damage, 100 complete death), 14 days after application
# Procedure, shortened: as §2
# [18] = test system: lambsquarters (Chenopodium album, CHEAL); assay: as above; details: rating scale 0-100 (0 no damage, 100 complete death), 14 days after application
# Procedure, shortened: as §2
# [19] = test system: sicklepod (Cassia obtusifolia, CASOB); assay: as above; details: rating scale 0-100 (0 no damage, 100 complete death), 14 days after application
# Procedure, shortened: as §2
# [20] = test system: redroot pigweed (Amaranthus retroflexus, AMARE); assay: as above; details: rating scale 0-100 (0 no damage, 100 complete death), 14 days after application
# Procedure, shortened: as §2
# [21] = test system: johnsongrass (Sorghum halepense, SORHA); assay: as above; details: rating scale 0-100 (0 no damage, 100 complete death), 14 days after application
# Procedure, shortened: as §2
# [22] = test system: upland rice (Oryza sp., var. Tebonnet, RICE); assay: Post-emerge test, crop safety; details: rating scale 0-100 (0 no damage, 100 complete death), 14 days after application
# Procedure, shortened: (§3)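 Rating: 0–100 visual injury, 14 DAA. Application: acetone, 187 l/ha, 15–1000 g ai/ha, flat-fan track sprayer with nozzle 40–45 cm above soil or canopy. Post-emerge runs used 0.25% v/v surfactant on 2–3 leaf plants.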
# [23] = test system: field corn (Zea mays L., var. Dekalb 535, CORN); assay: Post-emerge test, crop safety; details: rating scale 0-100 (0 no damage, 100 complete death), 14 days after application
# Procedure, shortened: as §3
compound,measurement,setting,value
"CCOC(=O)C(Br)Cc1c(OC)c(Cl)cc(F)c1-n1c(=O)cc(C(F)(F)F)n(C)c1=O (single isomer, unassigned) [14-32]","Pre-emerge herbicidal activity, phytotoxicity rating DIGSA",[1]; 63 g ai/ha,20
same,"Pre-emerge herbicidal activity, phytotoxicity rating DIGSA",[1]; 250 g ai/ha,100
same,"Pre-emerge herbicidal activity, phytotoxicity rating ECHCG",[2]; 63 g ai/ha,0
same,"Pre-emerge herbicidal activity, phytotoxicity rating ECHCG",[2]; 250 g ai/ha,30
same,"Pre-emerge herbicidal activity, phytotoxicity rating ABUTH",[3]; 63 g ai/ha,10
same,"Pre-emerge herbicidal activity, phytotoxicity rating ABUTH",[3]; 250 g ai/ha,50
same,"Pre-emerge herbicidal activity, phytotoxicity rating IPOHE",[4]; 63 g ai/ha,0
same,"Pre-emerge herbicidal activity, phytotoxicity rating IPOHE",[4]; 250 g ai/ha,0
same,"Pre-emerge herbicidal activity, phytotoxicity rating SETVI",[5]; 63 g ai/ha,0
same,"Pre-emerge herbicidal activity, phytotoxicity rating SETVI",[5]; 250 g ai/ha,40
same,"Pre-emerge herbicidal activity, phytotoxicity rating CHEAL",[6]; 63 g ai/ha,80
same,"Pre-emerge herbicidal activity, phytotoxicity rating CHEAL",[6]; 250 g ai/ha,100
same,"Pre-emerge herbicidal activity, phytotoxicity rating CASOB",[7]; 63 g ai/ha,0
same,"Pre-emerge herbicidal activity, phytotoxicity rating CASOB",[7]; 250 g ai/ha,30
same,"Pre-emerge herbicidal activity, phytotoxicity rating SORHA",[8]; 63 g ai/ha,0
same,"Pre-emerge herbicidal activity, phytotoxicity rating SORHA",[8]; 250 g ai/ha,20
same,"Pre-emerge herbicidal activity, phytotoxicity rating AMARE",[9]; 63 g ai/ha,100
same,"Pre-emerge herbicidal activity, phytotoxicity rating AMARE",[9]; 250 g ai/ha,100
same,"Pre-emerge phytotoxicity rating, crop damage RICE",[10]; 63 g ai/ha,0
same,"Pre-emerge phytotoxicity rating, crop damage RICE",[10]; 250 g ai/ha,10
same,"Pre-emerge phytotoxicity rating, crop damage CORN",[11]; 63 g ai/ha,0
same,"Pre-emerge phytotoxicity rating, crop damage CORN",[11]; 250 g ai/ha,0
same,"Post-emerge Herbicidal Activity, phytotoxicity rating DIGSA",[12]; Rate 63 g ai/ha,70
same,"Post-emerge Herbicidal Activity, phytotoxicity rating DIGSA",[12]; Rate 250 g ai/ha,90
same,"Post-emerge Herbicidal Activity, phytotoxicity rating ECHCG",[13]; Rate 63 g ai/ha,100
same,"Post-emerge Herbicidal Activity, phytotoxicity rating ECHCG",[13]; Rate 250 g ai/ha,100
same,"Post-emerge Herbicidal Activity, phytotoxicity rating ABUTH",[14]; Rate 63 g ai/ha,90
same,"Post-emerge Herbicidal Activity, phytotoxicity rating ABUTH",[14]; Rate 250 g ai/ha,95
same,"Post-emerge Herbicidal Activity, phytotoxicity rating IPOHE",[15]; Rate 63 g ai/ha,0
same,"Post-emerge Herbicidal Activity, phytotoxicity rating IPOHE",[15]; Rate 250 g ai/ha,20
same,"Post-emerge Herbicidal Activity, phytotoxicity rating SETVI",[16]; Rate 63 g ai/ha,40
same,"Post-emerge Herbicidal Activity, phytotoxicity rating SETVI",[16]; Rate 250 g ai/ha,70
same,"Post-emerge Herbicidal Activity, phytotoxicity rating AMBEL",[17]; Rate 63 g ai/ha,40
same,"Post-emerge Herbicidal Activity, phytotoxicity rating AMBEL",[17]; Rate 250 g ai/ha,40
same,"Post-emerge Herbicidal Activity, phytotoxicity rating CHEAL",[18]; Rate 63 g ai/ha,0
same,"Post-emerge Herbicidal Activity, phytotoxicity rating CHEAL",[18]; Rate 250 g ai/ha,80
same,"Post-emerge Herbicidal Activity, phytotoxicity rating CASOB",[19]; Rate 63 g ai/ha,20
same,"Post-emerge Herbicidal Activity, phytotoxicity rating CASOB",[19]; Rate 250 g ai/ha,40
same,"Post-emerge Herbicidal Activity, phytotoxicity rating AMARE",[20]; Rate 63 g ai/ha,95
same,"Post-emerge Herbicidal Activity, phytotoxicity rating AMARE",[20]; Rate 250 g ai/ha,100
same,"Post-emerge Herbicidal Activity, phytotoxicity rating SORHA",[21]; Rate 63 g ai/ha,0
same,"Post-emerge Herbicidal Activity, phytotoxicity rating SORHA",[21]; Rate 250 g ai/ha,10
same,Post-emerge phytotoxicity rating RICE (crop damage),[22]; Rate 63 g ai/ha,0
same,Post-emerge phytotoxicity rating RICE (crop damage),[22]; Rate 250 g ai/ha,0
same,Post-emerge phytotoxicity rating CORN (crop damage),[23]; Rate 63 g ai/ha,0
same,Post-emerge phytotoxicity rating CORN (crop damage),[23]; Rate 250 g ai/ha,0
